Here are results for 20 compounds from US20250228239A1, “MOLECULES HAVING PESTICIDAL UTILITY, AND INTERMEDIATES, COMPOSITIONS, AND PROCESSES, RELATED THERETO” (priority 2024, published 2025).

In assay [1] the test system is Beet Armyworm (Spodoptera exigua, LAPHEG). The assay is described as follows: Bioassays on Beet Armyworm (BAW), 128-well diet tray assay. The settings on record: Spodoptera exigua. Format: in vivo. In short, it runs like this:
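Percent larval mortality, averaged across eight wells, scored after five to seven days at 25° C. under 14:10 light-dark. Each well held one to five second instars feeding on diet dosed at 50 μg/cm^2 with compound from 90:10 acetone-water, solvent dried off.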

Assay [2] relates to Cabbage Looper (Trichoplusia ni, TRIPNI). Briefly: Bioassays on Cabbage Looper (CL), 128-well diet tray assay. It is filed as in vivo. The settings on record: Trichoplusia ni. The essentials: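 Test molecule was dissolved in 90:10 acetone-water, applied to artificial diet at 50 μg/cm^2 and allowed to dry. Second-instar larvae were then added, one to five per well, and trays held at 25° C for five to seven days before mortality was scored and averaged.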

The mark [3] stands for this setting: Beet Armyworm, rating class, read-out: BAW.
Where [4] appears, read: Cabbage Looper, rating class, read-out: CL.
Setting [5] is: Table ABC: Biological Results, species BAW, read-out: BAW.
Where [6] appears, read: Table ABC: Biological Results, species CL, read-out: CL.
Where [7] appears, read: Beet Armyworm, Table ABC / ABC-DP rating, read-out: BAW rating.
Where [8] appears, read: Cabbage Looper, Table ABC / ABC-DP rating, read-out: CL rating.

Where two headings read alike, the source gives them in different places.

On to `CCO[C@H](C)C(=O)Nc1c(F)ccc(NC(=O)c2cc(NC(=O)[C@H]3[C@H](c4ccc(F)c(C(F)(F)F)c4)C3(Cl)Cl)ccc2Cl)c1F` [F1732, 2-Chloro-5-((1R,3R)-2,2-dichloro-3-(4-fluoro-3-(trifluoromethyl)phenyl)cyclopropane-1-carboxamido)-N-(3-((R)-2-ethoxypropanamido)-2,4-difluorophenyl)benzamide], for which the pest or weed control at 50 µg/cm2 in assay [1] (setting [3]) and in assay [2] (setting [4]) was 50 to 100% throughout.
As for `Nc1cc(F)c(NC(=O)c2cc(NC(=O)[C@H]3[C@H](c4cc(Cl)cc(Cl)c4)C3(Cl)Cl)ccc2Cl)c(F)c1` [F1027, N-(4-Amino-2,6-difluorophenyl)-2-chloro-5-((1R,3R)-2,2-dichloro-3-(3,5-dichlorophenyl)cyclopropane-1-carboxamido)benzamide], the pest or weed control at 50 µg/cm2 in assay [1] (setting [5]) and in assay [2] (setting [6]) was 50 to 100% each time.
On to `Nc1cc(NC(=O)c2cc(NC(=O)[C@H]3[C@H](c4ccc(F)c(C(F)(F)F)c4)C3(Cl)Cl)cc(F)c2Cl)c(F)cc1F` [F1398, N-(5-Amino-2,4-difluorophenyl)-2-chloro-5-((1R,3R)-2,2-dichloro-3-(4-fluoro-3-(trifluoromethyl)phenyl)cyclopropane-1-carboxamido)-3-fluorobenzamide], for which the pest or weed control at 50 µg/cm2 in assay [1] (setting [3]) and in assay [2] (setting [4]) was 50 to 100% in each case.
Turning to `O=C(Nc1ccc(F)cc1F)c1cc(NC(=O)[C@H]2[C@H](c3ccc(F)c(Cl)c3)C2(Cl)Cl)cc(Cl)c1F` (relative stereo) [F1196, trans-3-Chloro-5-(2,2-dichloro-3-(3-chloro-4-fluorophenyl)cyclopropane-1-carboxamido)-N-(2,4-difluorophenyl)-2-fluorobenzamide], the pest or weed control at 50 µg/cm2 in assay [1] (setting [5]) and in assay [2] (setting [6]) was 50 to 100% each time.
Turning to `O=C(Nc1cc(NC(=O)C(F)(F)F)c(F)cc1F)c1cc(NC(=O)[C@H]2[C@H](c3ccc(Cl)c(Cl)c3)C2(Cl)Cl)cc(F)c1Cl` [F1403, 2-Chloro-5-((1R,3R)-2,2-dichloro-3-(3,4-dichlorophenyl)cyclopropane-1-carboxamido)-N-(2,4-difluoro-5-(2,2,2-trifluoroacetamido)phenyl)-3-fluorobenzamide], the pest or weed control at 50 µg/cm2 in assay [1] (setting [3]) and in assay [2] (setting [4]) was 50 to 100% in each case.
For `Cc1ccc(NNC(=O)c2cc(NC(=O)[C@H]3[C@H](c4cc(Cl)cc(Cl)c4)C3(Cl)Cl)ccc2Cl)cc1` (relative stereo) [F2575, trans-2,2-Dichloro-N-(4-chloro-3-(2-(p-tolyl)hydrazine-1-carbonyl)phenyl)-3-(3,5-dichlorophenyl)cyclopropane-1-carboxamide], the mortality at 50 µg/cm2 in assay [1] (168 h, second instar larvae, 50 μg/cm^2 of test molecule on artificial diet, 25° C., five to seven days, average of eight wells, read-out: BAW % Control (or Mortality) rating) fell in the range of 50 to 100%; in assay [2] (168 h, second instar larvae, 50 μg/cm^2 of test molecule on artificial diet, 25° C., five to seven days, average of eight wells, read-out: CL % Control (or Mortality) rating), 50 to 100%. Also, the pest or weed control at 50 µg/cm2 in assay [1] (setting [7]) and in assay [2] (setting [8]) was 50 to 100% throughout.
Regarding `Cc1cc(NC(=O)[C@H]2[C@H](c3ccc(Cl)c(Cl)c3)C2(Cl)Cl)cc(C(=O)Nc2c(F)ccc(NC(=O)C(F)(F)F)c2F)c1Cl` [F1430, 2-Chloro-5-((1R,3R)-2,2-dichloro-3-(3,4-dichlorophenyl)cyclopropane-1-carboxamido)-N-(2,6-difluoro-3-(2,2,2-trifluoroacetamido)phenyl)-3-methylbenzamide], the pest or weed control at 50 µg/cm2 in assay [1] (setting [3]) and in assay [2] (setting [4]) was 50 to 100% each time.
Consider `COC(=O)C(=O)Nc1c(F)ccc(NC(=O)c2cc(NC(=O)[C@H]3[C@H](c4ccc(F)c(C(F)(F)F)c4)C3(Cl)Cl)ccc2Cl)c1F` [F1753, Methyl 2-((3-(2-chloro-5-((1R,3R)-2,2-dichloro-3-(4-fluoro-3-(trifluoromethyl)phenyl)cyclopropane-1-carboxamido)benzamido)-2,6-difluorophenyl)amino)-2-oxoacetate], for which the pest or weed control at 50 µg/cm2 in assay [1] (setting [3]) and in assay [2] (setting [4]) was 50 to 100% throughout.
For the compound `CC(=O)Nc1c(F)ccc(NC(=O)c2cc(NC(=O)[C@H]3[C@H](c4ccc(F)c(C(F)(F)F)c4)C3(Cl)Cl)cc(F)c2F)c1F` [F1570, N-(3-Acetamido-2,4-difluorophenyl)-5-((1R,3R)-2,2-dichloro-3-(4-fluoro-3-(trifluoromethyl)phenyl)cyclopropane-1-carboxamido)-2,3-difluorobenzamide], the pest or weed control at 50 µg/cm2 in assay [1] (setting [3]) and in assay [2] (setting [4]) was 50 to 100% in each case.
For `CC(=O)Nc1ccc(NC(=O)c2c(Cl)ccc(NC(=O)[C@H]3[C@H](c4ccc(F)c(Cl)c4)C3(Cl)Cl)c2Cl)cc1` (relative stereo) [F1102, trans-N-(4-Acetamidophenyl)-2,6-dichloro-3-(2,2-dichloro-3-(3-chloro-4-fluorophenyl)cyclopropane-1-carboxamido)benzamide], the pest or weed control at 50 µg/cm2 in assay [1] (setting [5]) and in assay [2] (setting [6]) was 50 to 100% each time.
`CC(=O)OCCNc1ccc(NC(=O)c2cc(NC(=O)[C@H]3[C@H](c4ccc(F)c(C(F)(F)F)c4)C3(Cl)Cl)ccc2Cl)c(C)c1` [F1144, 2-((4-(2-Chloro-5-((1R,3R)-2,2-dichloro-3-(4-fluoro-3-(trifluoromethyl)phenyl)cyclopropane-1-carboxamido)benzamido)-3-methylphenyl)amino)ethyl acetate]: the pest or weed control at 50 µg/cm2 in assay [1] (setting [5]) and in assay [2] (setting [6]) was 50 to 100% in each case.
As for `CC(C)(C)OC(=O)N(C(=O)OC(C)(C)C)c1c(F)ccc(NC(=O)c2cc(NC(=O)[C@H]3[C@H](c4ccc(F)c(Cl)c4)C3(Cl)Cl)cc(F)c2F)c1F` (relative stereo) [F1211, trans-tert-Butyl-N-tert-butoxycarbonyl-N-[3-[[5-[[2,2-dichloro-3-(3-chloro-4-fluorophenyl)cyclopropanecarbonyl]amino]-2,3-difluorobenzoyl]amino]-2,6-difluorophenyl]carbamate], the pest or weed control at 50 µg/cm2 in assay [1] (setting [5]) and in assay [2] (setting [6]) was 50 to 100% each time.
`Cc1cc(NCCc2ccccc2)ccc1NC(=O)c1cc(NC(=O)[C@H]2[C@H](c3cc(Cl)cc(Cl)c3)C2(Cl)Cl)ccc1Cl` (relative stereo) [F1177, trans-2-Chloro-5-(2,2-dichloro-3-(3,5-dichlorophenyl)cyclopropane-1-carboxamido)-N-(2-methyl-4-(phenethylamino)phenyl)benzamide]: the pest or weed control at 50 µg/cm2 in assay [1] (setting [5]) and in assay [2] (setting [6]) was 50 to 100% each time.
On to `Cc1cc(NCc2ccc(C(F)(F)F)cc2)ccc1NC(=O)c1cc(NC(=O)[C@H]2[C@H](c3cc(Cl)cc(Cl)c3)C2(Cl)Cl)ccc1Cl` (relative stereo) [F1165, trans-2-Chloro-5-(2,2-dichloro-3-(3,5-dichlorophenyl)cyclopropane-1-carboxamido)-N-(2-methyl-4-((4-(trifluoromethyl)benzyl)amino)phenyl)benzamide], for which the pest or weed control at 50 µg/cm2 in assay [1] (setting [5]) and in assay [2] (setting [6]) was 50 to 100% in each case.
As to `Cc1cc(NC(=O)[C@H]2[C@H](c3ccc(F)c(C(F)(F)F)c3)C2(Cl)Cl)cc(C(=O)Nc2c(F)ccc(N)c2F)c1Cl` [F1428, N-(3-Amino-2,6-difluorophenyl)-2-chloro-5-((1R,3R)-2,2-dichloro-3-(4-fluoro-3-(trifluoromethyl)phenyl)cyclopropane-1-carboxamido)-3-methylbenzamide], the pest or weed control at 50 µg/cm2 in assay [1] (setting [3]) and in assay [2] (setting [4]) was 50 to 100% in each case.
For `O=C(Nc1cc(NC(=O)C(F)F)c(F)cc1F)c1cc(NC(=O)[C@H]2[C@H](c3ccc(Cl)c(Cl)c3)C2(Cl)Cl)cc(F)c1F` [F1583, 5-((1R,3R)-2,2-Dichloro-3-(3,4-dichlorophenyl)cyclopropane-1-carboxamido)-N-(5-(2,2-difluoroacetamido)-2,4-difluorophenyl)-2,3-difluorobenzamide], the pest or weed control at 50 µg/cm2 in assay [1] (setting [3]) and in assay [2] (setting [4]) was 50 to 100% throughout.
Regarding `CC(=O)Nc1cc(NC(=O)c2cc(NC(=O)[C@H]3[C@H](c4cc(Cl)c(Cl)c(Cl)c4)C3(Cl)Cl)cc(C)c2Cl)c(F)cc1F` [F1547], the pest or weed control at 50 µg/cm2 in assay [1] (setting [3]) and in assay [2] (setting [4]) was 50 to 100% each time.
With `CC(=O)Nc1ccc(F)c(NC(=O)c2cc(NC(=O)[C@H]3[C@H](c4ccc(Cl)c(Cl)c4)C3(Cl)Cl)ccc2Cl)c1F` [F1536, N-(3-Acetamido-2,6-difluorophenyl)-2-chloro-5-((1R,3R)-2,2-dichloro-3-(3,4-dichlorophenyl)cyclopropane-1-carboxamido)benzamide], the pest or weed control at 50 µg/cm2 in assay [1] (setting [3]) and in assay [2] (setting [4]) was 50 to 100% in each case.
Turning to `O=C(Nc1c(F)ccc(NC(=O)C(F)(F)F)c1F)c1cc(NC(=O)[C@H]2[C@H](c3ccc(Cl)c(Cl)c3)C2(Cl)Cl)ccc1Cl` [F1537, 2-Chloro-5-((1R,3R)-2,2-dichloro-3-(3,4-dichlorophenyl)cyclopropane-1-carboxamido)-N-(2,6-difluoro-3-(2,2,2-trifluoroacetamido)phenyl)benzamide], the pest or weed control at 50 µg/cm2 in assay [1] (setting [3]) and in assay [2] (setting [4]) was 50 to 100% in each case.
`CCNC(=O)c1cc(NC(=O)[C@H]2[C@H](c3ccc(F)c(Cl)c3)C2(Cl)Cl)cc(Cl)c1C` (relative stereo) [F2041, trans-3-Chloro-5-(2,2-dichloro-3-(3-chloro-4-fluorophenyl)cyclopropane-1-carboxamido)-N-ethyl-2-methylbenzamide]: the pest or weed control at 50 µg/cm2 in assay [1] (setting [7]) and in assay [2] (setting [8]) was 50 to 100% in each case.
